1 compound from US20220104481A1, “CRYOPRESERVATION OF STEM CELLS” (TiGenix, S.A.U., priority 2019, published 2022) can be followed below.

The assay has as its system ASCs. Nature of the assay: MTS assay after post-thaw seeding of ASCs pretreated with compounds prior to freezing. The assay is classed as cell-based, human. The settings on record: for increase in mitochondrial activity compared to non-treated cells (MTS, 490 nm): pretreatment with 6 mM NAC. As to the method:
ASCs from donor A were thawed by warming the vials in a 37° C. bath and diluting the freezing medium containing DMSO with fresh complete DMEM (DMEM/F-12 media—GlutaMAX™-I, Gibco, supplemented with 100 μg/mL penicillin/streptomycin and 10% FBS). Cells were centrifuged at 450 g for 6 minutes at room temperature to eliminate leftover DMSO and plated in T-175 flasks at 20.000 cells/cm^2 in complete DMEM.
A 600 mM stock of NAC (SIGMA) was prepared in Milli-Q water (Millipore). This stock was used for pre-treatment and post-treatment by adding directly 50 μL stock solution per well into 5 mL of medium, making a final concentration of 6 mM. For 2 mM, only 16.7 μL were added per well, and in the case of 12 mM, 100 μL of stock were added. DMSO was used as the vehicle for sc79 and LY294.
Following the pretreatment step, the medium was removed, the cells were washed with PBS and trypsinized using trypsin-EDTA 0.25% (ThermoFisher) for 8 minutes at 37° C. After trypsin inactivation with complete DMEM, cells were harvested and centrifuged prior to resuspension in freezing medium (FBS with 10% DMSO), and frozen into 500,000 or 1 million cells per vial and stored in liquid nitrogen for further use. Specifically, the cells were frozen at −80° C. for 24 hours in a Cool Cell® device (BioCision) and then transferred to a liquid nitrogen storage container. All experiments were performed in incubators and 37° C., 5% CO2.
[…] The CellTiter 96° Aqueous One Solution Cell Proliferation Assay is a colorimetric method for determining the number of viable cells. The CellTiter 96° Aqueous One Solution reagent contains a tetrazolium compound [3-(4,5-dimethylthiazol-2-yl)-5-(3-carboxymethoxyphenyl)-2-(4-sulfophenyl)-2H-tetrazolium, MTS] and an electron coupling reagent (phenazine ethosulfate; PES). The MTS tetrazolium compound is bioreduced by cells—presumably by NADPH or NADH produced by dehydrogenase enzymes in metabolically active cells—into a coloured formazan product that is soluble in tissue culture medium.
Briefly, 40 μL of the reagent was added to 200 μL of complete DMEM in each well and absorbance was measured after 2-3 hours at 490 nm using a […]. Each condition was measured in 6 technical repeats. The MTS assay results are presented as percentage of absorbance at 490 nm relative to the non-treated (NT) cells.

As to `CC(=O)N[C@@H](CS)C(=O)O` [NAC, N-Acetylcysteine], the “cell number by MTS assay versus non-treated” value (6 mM NAC pretreatment for 24 hours, 24 hours post-seeding after thaw (FIG. 2)) is reported as “increased cell numbers”. The “increase of mitochondrial activity after NAC pretreatment (MTS)” value (6 mM NAC pretreatment, FIGS. 4B & C (24 and 96 hours post-thaw)) is reported as 15-20%. The “increase in mitochondrial activity compared to non-treated cells (MTS, 490 nm)” value by setting is: (24 hours culture post-thaw (FIG. 4B)) “greater than 35%”; (96 hours culture post-thaw (FIG. 4C)) “greater than 15%”.
